Experimental data from the NIST ThermoML archive (doi:10.1021/acs.jced.9b00375).
± gives the expanded uncertainty stated by the source. One block for each compound: values may come before it.

Key:
[1] = 298.15 K; 101.3 kPa; Liquid; Vibrating tube method
[2] = wn = mass fraction of the nth substance listed; conditions: 298.15 K, 101.3 kPa, Liquid, Vibrating tube method

SMILES: CCCCCCCC [octane]
mass density [1]: 698.7 ± 16 kg/m3

SMILES: CCCCCCC [heptane]
mass density [1]: 679 ± 16 kg/m3

SMILES: NCCO.O=CO [2-hydroxyethylammonium formate] + CCCCC
mass density ([2]; w2 = 0.9491): 625.1 ± 16 kg/m3

SMILES: CCO [ethanol]
mass density [1]: 785.7 ± 16 kg/m3

SMILES: NCCO.O=CO [2-hydroxyethylammonium formate] + CCCCCC
mass density ([2]; w2 = 0.0028): 1182.7 ± 16 kg/m3
mass density ([2]; w2 = 0.0063): 1194.1 ± 16 kg/m3
mass density ([2]; w2 = 0.997): 655.6 ± 16 kg/m3
mass density ([2]; w2 = 0.9982): 663.6 ± 16 kg/m3

SMILES: NCCO.O=CO [2-hydroxyethylammonium formate] + CCCCCCCC
mass density ([2]; w2 = 0.0035): 1192.6 ± 16 kg/m3
mass density ([2]; w2 = 0.9955): 699.5 ± 16 kg/m3
mass density ([2]; w2 = 0.9971): 699.7 ± 16 kg/m3

SMILES: CO [methanol]
mass density [1]: 786.7 ± 16 kg/m3

Other lines, results leading:

mass density [1]: 621.3 ± 16 kg/m3
SMILES: CCCCC [pentane]

mass density [1]: 668 ± 16 kg/m3
SMILES: CCCCCC [hexane]

mass density ([2]; w2 = 0.0045): 1183 ± 16 kg/m3
mass density ([2]; w2 = 0.9989): 680 ± 16 kg/m3
SMILES: NCCO.O=CO [2-hydroxyethylammonium formate] + CCCCCCC

mass density [1]: 1215 ± 16 kg/m3
SMILES: NCCO.O=CO [2-hydroxyethylammonium formate]
